pKi: −log10 of the molar value.
Key:
C57BL/6 mice = experiment: Tail bleeding time; type: in vivo; settings: tail-cutting assay, mean ± SD, n = 10
Method: Figure 4 Effects of compounds 1–4 on clotting and bleeding time. (A) One hour after administration (intravenous injection) of compound 1 (white box), 2 (light gray box), 3 (dark gray box), or 4 (black box), blood was collected from the mice and platelet-poor plasma (PPP) was obtained by centrifugation at 2,000 × g for 10 min at room temperature to test ex vivo activated partial thromboplastin time (aPTT). (B) Each group received a daily intravenous injection of the indicated compound for four consecutive days. Fifteen minutes after the last administration, blood samples were collected and in vivo aPTT was measured. (C) Fifteen minutes after administration of each compound or aspirin (4.5 or 9 mg/kg for 30 min) or the vehicle, tail tips (3 mm long) were cut from each mouse, and the remaining tail was immediately immersed into saline at 37 °C. Accumulated bleeding times (including periods of re-bleeding) were recorded. D = 0.2% DMSO used as the vehicle control. Data are presented as means ± SD of three independent experiments. *p < 0.05 vs. vehicle alone, analyzed by one-way ANOVA, followed by Tukey multiple comparison testing.
To assess bleeding risk incurred by compounds 1–4, we measured bleeding time in mice treated with each compound (up to 30 µM/mouse) by using a tail-cutting assay; the concentration used was three-fold higher than the doses used for the in vivo anti-thrombotic studies. Aspirin-treated mice (9 mg/kg) served as positive controls. […] However, the bleeding time in mice treated with compounds 1–4 was shorter than that observed in mice treated with aspirin ([…], mean ± SD, n = 10). The dose required to avoid thrombus formation and to protect against paralysis or death in mice was determined to be 5 µM per mouse (Fig. 7C).
Tail bleeding times were measured using the method described by Dejana et al.[37]. Briefly, C57BL/6 mice were fasted overnight prior to the experiments. […] after the i.v. administration of each compound, the tails of the mice were transected […] from their tips. Bleeding time was defined as the time elapsed until bleeding stopped. Bleeding times that exceeding 15 min were recorded as 15 min.

Trypsin = experiment: Chromogenic substrate assay, Ki determination, Trypsin; type: biochemical, human
Method: (§1) The inhibitor (I) constants (Ki) were determined for the inhibition of a series of human enzymes (FXa, thrombin, trypsin, plasmin, protein Ca, streptokinase, tPA, and urokinase) by each compound. Chromogenic substrate assays were performed using a Labsystems IEMS (Cergy Pontoise, France) microtiter plate reader. In each assay, the compound was tested at a minimum of seven concentrations in duplicate to obtain an inhibition curve. Assays were performed according to the following general procedure. In a 96-well microtiter plate, 25 μL of compound, inhibitor solution or buffer was added to 50 μL of substrate. A volume of 25 μL of enzyme solution was added just before the plate was placed in the microtiter plate reader for 1 h at 37 °C. The hydrolysis of the substrate yields p-nitroaniline, which was continuously monitored spectrophotometrically at 405 nm. Data were collected and the initial rate of substrate hydrolysis [Vo (mOD/minute)] was calculated. Following Michaelis-Menten kinetics, the affinity of the enzyme for the substrate, in the absence of the inhibitor (Km) and in the presence of an inhibitor (Kp), was determined to be the negative inverse x-intercept of Lineweaver–Burk plots. The dissociation constant for inhibition (Ki) was calculated using the following equation: Ki = (Km·[I])/(Kp − Km) as described by Williams and Morrison[40].

FXa = target: T1, FXa (Homo sapiens, UniProt P00742); experiment: Inhibition of amidolytic activity of FXa toward S-2222 (Michaelis-Menten, Lineweaver-Burk; with or without TFPI); type: biochemical; settings: for slope of inhibition activity plot: FXa
T1 construct: purchased Haematologic Technologies (Essex Junction, VT, USA)
T1 sequence (P00742 235-488 limits assumed): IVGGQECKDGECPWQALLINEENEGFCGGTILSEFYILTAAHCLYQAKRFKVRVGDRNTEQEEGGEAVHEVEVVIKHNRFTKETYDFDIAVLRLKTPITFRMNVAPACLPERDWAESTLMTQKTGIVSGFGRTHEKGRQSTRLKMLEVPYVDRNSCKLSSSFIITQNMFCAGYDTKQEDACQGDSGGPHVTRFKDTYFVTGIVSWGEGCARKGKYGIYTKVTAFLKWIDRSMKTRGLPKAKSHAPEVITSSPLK
T1 sequence (P00742 41-179 limits assumed): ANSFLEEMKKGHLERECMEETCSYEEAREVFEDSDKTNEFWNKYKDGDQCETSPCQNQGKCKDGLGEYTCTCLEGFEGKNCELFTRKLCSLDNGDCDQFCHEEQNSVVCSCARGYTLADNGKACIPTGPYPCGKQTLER
Method: To elucidate the mechanisms responsible for inhibition of coagulation and platelet aggregation by compounds 1–4, inhibition of FXa activity was determined using chromogenic substrates. […] We observed a decrease in Vmax, with no effect on the Km of FXa toward S-2222 in the presence of compound 1. […] We also observed a slope of 0.401 for the control without compound 2, and slopes of 0.442 and 0.465 for compound 2 at concentrations of 2 and 5 µM, respectively. […] We observed a decrease in Vmax, with no effect on the Km of FXa toward S-2222 in the presence of compound 2. […] Inhibition activity plots were obtained for different concentrations of compound 3, showing a slope of 0.388 for the control without compound 3, and slopes of 0.408 and 0.464 for compound 3 at concentrations of 2 and 5 µM, respectively. […] We also observed a slope of 0.363 for the control without compound 4, and slopes of 0.376 and 0.398 for compound 4 at concentrations of 2 and 5 µM, respectively. […] We observed a decrease in Vmax, with no effect on the Km of FXa toward S-2222 in the presence of compound 4.
Figure 6 Effects of compounds 1–4 on inhibition and production of FXa. […] The plots represent means of three independent measurements. (E) Human umbilical vein endothelial cells (HUVECs) were pre-incubated with the indicated concentration of each compound for 10 min. HUVECs stimulated with tumor necrosis factor-α (TNF-α, 10 ng/mL for 6 h) were incubated with FVIIa (10 nM) and FX (175 nM) in the absence or presence of anti-TF IgG (25 µg/mL). FXa production was determined as described in the “ Supplementary Materials and Methods” section. D = 0.2% DMSO used as the vehicle control. (F) Inhibition of FXa by each compound (5 μM) with or without TFPI (2 nM) was monitored using a chromogenic assay. ^* p < 0.05 vs. TNF-α alone (E) or each compound (F) alone, analyzed via one-way ANOVA, followed by Tukey multiple comparison testing.
Each compound with or without TFPI was dissolved in 50 mM Tris-HCl buffer (pH 7.4) containing 7.5 mM EDTA and 150 mM NaCl. Following a 2-min incubation at 37 °C, FXa solution (150 μL, 1 U/mL) was added, followed by incubation at 37 °C for 1 min. S-2222 (an FXa substrate, 150 μL, 1.5 mM) solution was subsequently added, and the absorbance at 405 nm was monitored for 20 min using a spectrophotometer (TECAN, Männedorf, Switzerland). The absorbance-time curve and the slope of the curve (Vi) were used to represent the activity of the enzyme. Distilled water served as a control (the slope of curve V0). The inhibitory effect was calculated according to equation (1):1 Inhibitoryrate(%)=(V0−Vi)/V0×100 where V0 represents the slope of the vehicle and Vi represents the slope of the samples.

α-Thrombin = target: T2, α-Thrombin (Homo sapiens, UniProt P00734); experiment: Chromogenic substrate assay, Ki determination, α-Thrombin; type: biochemical
T2 construct: FXa converts prothrombin to thrombin; purchased Haematologic Technologies (Essex Junction, VT, USA)
Method: as §1

[1] = system: Streptokinase (Homo sapiens); experiment: Chromogenic substrate assay, Ki determination, Streptokinase; type: biochemical
Sequence of Streptokinase (Homo sapiens) (P00747 581-810 limits assumed): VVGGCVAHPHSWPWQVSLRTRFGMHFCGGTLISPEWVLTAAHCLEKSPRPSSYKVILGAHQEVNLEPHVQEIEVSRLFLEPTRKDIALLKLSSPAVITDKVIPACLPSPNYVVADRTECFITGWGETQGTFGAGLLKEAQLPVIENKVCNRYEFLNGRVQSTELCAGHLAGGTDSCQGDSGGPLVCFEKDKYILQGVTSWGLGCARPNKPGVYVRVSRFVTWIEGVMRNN
Method: as §1

`CC(=O)NCCc1ccc2c(c1)O[C@H](c1ccc(O)c(O)c1)[C@H](NC(C)=O)O2` [Compound 1, (2 R,3 R)-2-(3′,4′-dihydroxyphenyl)-3-acetylamino-7-(N-acetyl-2″-aminoethyl)-1,4-benzodioxane] was tested. Which bleeding time (C57BL/6 mice; mice treated with 10 µM) did it give?
Its bleeding time is 13.5 ± 1.3 min.

And the bleeding time (C57BL/6 mice; mice treated with 30 µM)?
The bleeding time was 14.3 ± 1.2 min.

And the “Ratio = Ki enzyme/Ki Factor Xa, Trypsin” value (Trypsin)?
Its value is over 100.

What about the pKi (Trypsin; substrate S-2222) of the same compound?
Its pKi is under 3.52.

And the “Km of FXa toward S-2222 in the presence of compound” value (FXa)?
The value was “no effect”.

And the “Vmax of FXa toward S-2222 in the presence of compound” value (FXa)?
The value was “decrease”.

What about the “type of inhibition of FXa (Lineweaver-Burk plots)” value (FXa; S-2222) of the same compound?
Its value is “noncompetitive inhibition”.

And the “slope of inhibition activity plot” value (FXa; compound at 2 µM, S-2222)?
Its value is 0.707.

And the “slope of inhibition activity plot” value (FXa; compound at 5 µM, S-2222)?
The value was 0.957.

And the pKi (FXa; substrate S-2222)?
The pKi was 5.53.

And the “Ratio = Ki enzyme/Ki Factor Xa, α-Thrombin” value (α-Thrombin)?
The value was over 100.

What about the pKi (α-Thrombin; substrate S-2238) of the same compound?
The pKi was under 3.52.

What about the “Ratio = Ki enzyme/Ki Factor Xa, Streptokinase” value [1] of the same compound?
Its value is over 100.

What about the pKi ([1]; substrate S-2251) of the same compound?
Its pKi is under 3.52.
